In ChEMBL document CHEMBL5316350, “Novel Pyrido[2',1':2,3]imidazo[4,5-c]quinoline Derivative Selectively Poisons Leishmania donovani Bisubunit Topoisomerase 1 to Inhibit the Antimony-Resistant Leishmania Infection in Vivo” (J Med Chem, 2023):
The source made the active and inactive calls. The calls are words filed in the database; no cut-off is given here.

How the values were obtained:
Leishmania donovani [1] = assay: Induction of cell cycle arrest in Leishmania donovani Ag83 promastigotes assessed as decrease in accumulation of cells in S phase at 5 uM measured after 24 hrs by PI staining based flow cytometry (reference value: 18.1%); assay type: functional; set-up: scale not given: the % may be the effect or the level left
DNA topoisomerase I = target: T1, DNA topoisomerase I (Leishmania donovani (strain BPK282A1), UniProt E9BRC0); assay: Inhibition of recombinant Top1 in Leishmania donovani Ag83 whole cell extract assessed as relaxation of supercoiled pBluescript SK(+) DNA measured by agarose gel electrophoresis analysis
T1 sequence (E9BRC0 whole entry): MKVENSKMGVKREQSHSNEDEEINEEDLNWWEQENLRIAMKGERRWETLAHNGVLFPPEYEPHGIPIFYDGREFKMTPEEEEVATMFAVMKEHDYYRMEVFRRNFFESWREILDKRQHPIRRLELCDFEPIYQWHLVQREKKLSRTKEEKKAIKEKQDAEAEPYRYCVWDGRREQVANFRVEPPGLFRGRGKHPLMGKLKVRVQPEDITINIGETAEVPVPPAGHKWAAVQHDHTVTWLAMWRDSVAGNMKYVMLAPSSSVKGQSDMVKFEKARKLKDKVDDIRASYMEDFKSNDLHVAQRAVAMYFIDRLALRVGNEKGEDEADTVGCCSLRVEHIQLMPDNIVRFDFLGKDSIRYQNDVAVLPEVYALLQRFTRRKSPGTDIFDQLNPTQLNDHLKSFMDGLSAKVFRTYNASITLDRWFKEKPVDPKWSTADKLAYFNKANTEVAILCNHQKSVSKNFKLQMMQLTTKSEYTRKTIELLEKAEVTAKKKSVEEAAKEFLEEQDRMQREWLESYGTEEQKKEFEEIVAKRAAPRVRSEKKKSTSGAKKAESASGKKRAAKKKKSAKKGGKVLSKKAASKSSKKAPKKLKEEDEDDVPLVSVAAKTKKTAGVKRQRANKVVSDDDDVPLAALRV

[2] = target: T2, DNA topoisomerase I (Leishmania donovani (strain BPK282A1)) (UniProt E9BRC0); assay: Inhibition of Leishmania donovani recombinant Top1 assessed as relaxation of supercoiled pBluescript SK(+) DNA incubated for 30 mins by agarose gel electrophoresis analysis; conditions: dose 0.5-10 µM
T2 sequence (whole entry): T1 sequence (E9BRC0 whole entry)

[3] = target: T3, DNA topoisomerase 1 (Homo sapiens) (UniProt P11387); assay: Inhibition of human recombinant Top1 infected in Sf9 cells assessed as plasmid DNA relaxation upto 100 uM measured after 30 mins
T3 sequence (whole entry): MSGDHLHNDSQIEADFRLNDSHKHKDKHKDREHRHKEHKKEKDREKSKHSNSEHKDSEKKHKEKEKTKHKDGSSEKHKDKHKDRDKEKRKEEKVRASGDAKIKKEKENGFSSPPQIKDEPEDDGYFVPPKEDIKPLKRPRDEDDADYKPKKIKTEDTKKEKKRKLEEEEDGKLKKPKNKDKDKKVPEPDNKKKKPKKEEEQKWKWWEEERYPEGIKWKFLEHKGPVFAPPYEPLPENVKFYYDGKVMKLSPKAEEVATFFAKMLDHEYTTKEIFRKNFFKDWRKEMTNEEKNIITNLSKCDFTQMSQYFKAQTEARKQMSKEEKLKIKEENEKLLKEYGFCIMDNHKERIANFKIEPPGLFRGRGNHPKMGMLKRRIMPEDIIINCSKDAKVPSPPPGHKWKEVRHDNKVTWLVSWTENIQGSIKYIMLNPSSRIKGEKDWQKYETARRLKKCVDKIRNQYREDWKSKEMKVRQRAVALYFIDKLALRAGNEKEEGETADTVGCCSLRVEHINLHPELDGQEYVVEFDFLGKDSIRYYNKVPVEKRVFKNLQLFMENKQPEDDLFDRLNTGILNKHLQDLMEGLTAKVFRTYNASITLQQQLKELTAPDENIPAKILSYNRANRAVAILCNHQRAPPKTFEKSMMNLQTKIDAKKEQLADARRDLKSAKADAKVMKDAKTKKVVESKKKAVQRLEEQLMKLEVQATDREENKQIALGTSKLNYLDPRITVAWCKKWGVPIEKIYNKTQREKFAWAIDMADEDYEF

[4] = target: T2, DNA topoisomerase I (Leishmania donovani (strain BPK282A1)); assay: Binding affinity to Leishmania donovani topoisomerase I assessed as DNA intercalation by measuring dislodging of bound fluorophore at 200 uM by EtBr displacement assay
Leishmania donovani [5] = assay: Stabilization of Leishmania donovani recombinant topoisomerase I/25-mer duplex oligonucleotide DNA complex assessed as fold change in stabilization at 5 to 25 uM measured after 30 mins; conditions: dose 5-25 µM
Leishmania donovani [6] = assay: Induction of apoptosis in Leishmania donovani Ag83 promastigotes assessed as DNA break accumulation measured at 5 uM after 24 hrs by TUNEL staining based assay; assay type: functional, organism-based
Leishmania donovani [7] = assay: Induction of apoptosis in Leishmania donovani Ag83 promastigotes assessed as early apoptotic cells measured at 5 uM after 24 hrs by Annexin V-FITC/PI staining based flow cytometric analysis (reference value: 0.00%); assay type: functional
MCF7 = assay: Induction of apoptosis in human MCF7 cells measured at 5 uM upto 24 hrs by Annexin V-FITC/PI staining based flow cytometric analysis; assay type: functional, cell-based
[8] = target: T2, DNA topoisomerase I (Leishmania donovani (strain BPK282A1)); assay: Binding affinity to antimony resistant Leishmania donovani BHU575 promastigotes recombinant topoisomerase I assessed as stabilization of cleavage complex at 5 to 50 uM measured after 30 mins; conditions: dose 5-50 µM
[9] = target: T2, DNA topoisomerase I (Leishmania donovani (strain BPK282A1)); assay: Binding affinity to antimony resistant Leishmania donovani BHU575 promastigotes recombinant topoisomerase I assessed as fold change in stabilization of cleavage complex at 5 to 50 uM measured after 30 mins relative to camptothecin; conditions: dose 5-50 µM
Leishmania donovani [10] = assay: Antileishmanial activity against antimony resistant Leishmania donovani BHU575 promastigotes assessed as cell viability by MTT assay; assay type: functional, organism-based
Leishmania donovani [11] = assay: Induction of apoptosis in Leishmania donovani BHU575 assessed as DNA break accumulation measured at 5 uM after 6 to 24 hrs by TUNEL staining based assay; assay type: functional, organism-based; conditions: time 6-24 hrs
Leishmania donovani [12] = assay: Antileishmanial activity in Leishmania donovani BHU575 promastigotes assessed as TUNEL positive cells at 5 uM measured after 12 hrs by confocal microscopic analysis relative to control; assay type: functional
Leishmania donovani [13] = assay: Induction of cell cycle arrest in antimony resistant Leishmania donovani BHU575 promastigotes assessed as decrease in accumulation of cells in G0/G1 phase at 5 uM measured after 12 hrs by PI staining based flow cytometry (reference value: 80.7%); assay type: functional; set-up: scale not given: the % may be the effect or the level left
Leishmania donovani [14] = assay: Induction of cell cycle arrest in antimony resistant Leishmania donovani BHU575 promastigotes assessed as decrease in accumulation of cells in G2/M phase at 5 uM measured after 12 hrs by PI staining based flow cytometry (reference value: 8.8%); assay type: functional; set-up: scale not given: the % may be the effect or the level left
Leishmania donovani [15] = assay: Antileishmanial activity against antimony resistant Leishmania donovani BHU575 amastigotes infected in BALB/c mouse macrophage assessed as cell viability measured after 48 hrs infection by propidium iodide staining analysis relative to control; assay type: functional, organism-based; conditions: BHU575, 48 h
Leishmania donovani [16] = assay: Antileishmanial activity against antimony resistant Leishmania donovani BHU575 promastigotes infected in BALB/c mouse assessed as reduction of amastigote burden by measuring parasite count in liver treated after 3 weeks of infection at 5 to 10 mg/kg, ip twice a week for 3 weeks by qPCR based kineto-plastid DNA; assay type: functional, organism-based; conditions: dose 5-10 mg/kg
Leishmania donovani [17] = assay: Antileishmanial activity against Leishmania donovani Ag83 promastigotes infected in BALB/c mouse model of visceral leishmaniasis assessed as fold change in T-helper type 1 immunological evoke response in splenocytes by measuring increased IL-12 cytokine level treated after 3 weeks of infection at 5 to 10 mg/kg, ip twice a week for 3 weeks by RT-PCR analysis; assay type: functional; conditions: dose 5-10 mg/kg

Which Activity (Leishmania donovani [1]) does the source give for `COc1cc(-c2nc3ccccc3c3nc4ccccn4c23)cc(OC)c1OC` here?
The Activity was 31.5%.

What about the IC50 (DNA topoisomerase I) of the same compound?
Its IC50 is 6.5 µM.

And the inhibition [2]?
The inhibition was “Dose-Dependent Effect”.

And the inhibition [3]?
The inhibition was “inactive”.

And the Activity [4]?
The Activity was “inactive”.

What about the fold change (FC) (Leishmania donovani [5]) of the same compound?
The fold change (FC) was 2.

What about the Activity (Leishmania donovani [6]) of the same compound?
The Activity was “Active”.

What about the Activity (Leishmania donovani [7]) of the same compound?
The Activity was 4.9%.

And the Activity (MCF7)?
The Activity was “inactive”.

What about the Activity [8] of the same compound?
The Activity was “Active”.

What about the fold change (FC) [9] of the same compound?
The fold change (FC) was 5.

And the EC50 (Leishmania donovani [10])?
The EC50 was 4.8 µM.

And the Activity (Leishmania donovani [11])?
The Activity was “Active”.

What about the Activity (Leishmania donovani [12]) of the same compound?
The Activity was 60%.

What about the Activity (Leishmania donovani [13]) of the same compound?
Its Activity is 46%.

And the Activity (Leishmania donovani [14])?
Its Activity is 27.5%.

What about the EC50 (Leishmania donovani [15]) of the same compound?
The EC50 was 7.06 µM.

What about the Activity (Leishmania donovani [16]) of the same compound?
Its Activity is “Active”.

And the “fold change (FC)” value (Leishmania donovani [17])?
The value was 10.
